The compounds below were run against T1, human type 1 glycine transporter (GlyT1) (Homo sapiens, UniProt P48067) (assay: Glycine uptake inhibition experiment ([3H]glycine uptake)). Settings: GlyT1.
T1 construct: T98G cells (glioma cells) expressing human type 1 glycine transporter (GlyT1) were used
T1 sequence (P48067 1-706): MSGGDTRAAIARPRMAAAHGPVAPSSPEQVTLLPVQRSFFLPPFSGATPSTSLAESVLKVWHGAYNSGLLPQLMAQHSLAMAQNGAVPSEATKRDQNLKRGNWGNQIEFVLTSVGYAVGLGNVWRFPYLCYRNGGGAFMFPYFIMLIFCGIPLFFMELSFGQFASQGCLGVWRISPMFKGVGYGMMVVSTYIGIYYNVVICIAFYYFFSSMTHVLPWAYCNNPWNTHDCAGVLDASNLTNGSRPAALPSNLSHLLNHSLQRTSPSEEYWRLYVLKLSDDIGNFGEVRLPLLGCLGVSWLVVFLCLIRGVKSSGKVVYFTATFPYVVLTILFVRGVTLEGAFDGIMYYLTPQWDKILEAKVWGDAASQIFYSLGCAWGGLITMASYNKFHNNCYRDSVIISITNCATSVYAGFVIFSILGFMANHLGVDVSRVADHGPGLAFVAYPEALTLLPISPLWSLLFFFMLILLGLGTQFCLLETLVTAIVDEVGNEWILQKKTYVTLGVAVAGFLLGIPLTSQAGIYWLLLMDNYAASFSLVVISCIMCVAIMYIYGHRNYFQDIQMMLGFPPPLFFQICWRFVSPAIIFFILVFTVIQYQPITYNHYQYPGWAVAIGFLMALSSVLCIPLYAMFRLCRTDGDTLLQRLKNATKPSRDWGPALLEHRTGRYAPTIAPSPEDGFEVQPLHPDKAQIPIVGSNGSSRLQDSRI
Format: cell-based
How it was run: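 T98G glioma cells expressing human GlyT1 were pretreated 10 min with compound in HEPES buffer pH 7.4 (0.2% BSA), then incubated with compound plus 250 nM final [3H]glycine for 15 min at room temperature. Intracellular radioactivity was counted after NaOH lysis; 10 μM ALX5407 defined non-specific uptake. IC50 came from 10^−9–10^−5 M curves.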

IC50 [nM] | SMILES
77 | O=C(NC(c1cccc(Cl)n1)[C@]1(O)CC[C@@H](F)CC1)c1nccc(C(F)(F)F)c1Cl (single isomer, unassigned) [Compound 274, 3-chloro-N-[(6-chloropyridin-2-yl)(cis-4-fluoro-1-hydroxycyclohexyl)methyl]-4-(trifluoromethyl)pyridine-2-carboxamide]
1900 | Cc1ccccc1C(=O)NC(c1cccc(F)c1Cl)[C@]1(O)CC[C@@H](F)CC1 (single isomer, unassigned) [Compound 267, N-[(2-chloro-3-fluorophenyl)(cis-4-fluoro-1-hydroxycyclohexyl)methyl]-2-methylbenzamide]
130 | O=C(NC(c1ccc(F)cc1Cl)C1(O)CCCC1)c1nccc(C(F)(F)F)c1Cl (stereo not shown) [Compound 95, 3-chloro-N-[(2-chloro-4-fluorophenyl)(1-hydroxycyclopentyl)methyl]-4-(trifluoromethyl)pyridine-2-carboxamide]
1000 | O=C(NC(c1cccc(F)c1Cl)[C@]1(O)CC[C@@H](F)CC1)c1ncc(C(F)(F)F)cc1Cl (single isomer, unassigned) [Compound 320, 3-chloro-N-[(2-chloro-3-fluorophenyl)(cis-4-fluoro-1-hydroxycyclohexyl)methyl]-5-(trifluoromethyl)pyridine-2-carboxamide]
2300 | O=C(NC(c1cc(Cl)ccc1F)[C@]1(O)CC[C@@H](F)CC1)c1cc(C(F)(F)F)cnc1Cl (single isomer, unassigned) [Compound 378, 2-chloro-N-[(5-chloro-2-fluroophenyl)(cis-4-fluoro-1-hydroxycyclohexyl)methyl]-5-(trifluoromethyl)pyridine-3-carboxamide]
53 | O=C(NC(c1ccccc1Cl)[C@]1(O)CC[C@@H](F)CC1)c1nccc(C(F)(F)F)c1Cl (single isomer, unassigned) [Compound 197, 3-chloro-N-[(2-chlorophenyl)(cis-4-fluoro-1-hydroxycyclohexyl)methyl]-4-(trifluoromethyl)pyridine-2-carboxamide]
110 | O=C(NC(c1ccccc1Cl)C1(O)CCC(F)(F)CC1)c1nccc(C(F)(F)F)c1Cl (single isomer, unassigned) [Compound 147, 3-chloro-N-[(2-chlorophenyl)(4,4-difluoro-1-hydroxycyclohexyl)methyl]-4-(trifluoromethyl)pyridine-2-carboxamide]
130 | O=C(NC(c1cccc(F)c1Cl)[C@]1(O)CC[C@@H](F)CC1)c1ccc(C(F)(F)F)cc1-n1cccn1 (single isomer, unassigned) [Compound 390, N-[(2-chloro-3-fluorophenyl)(cis-4-fluoro-1-hydroxycyclohexyl)methyl]-2-(1H-pyrazol-1-yl)-4-(trifluoromethyl)benzamide]
6000 | O=C(NC(c1cccc(Cl)c1Cl)C1(O)CCCC1)c1nccc(C(F)(F)F)c1Cl (single isomer, unassigned) [Compound 116, 3-chloro-N-[(2,3-dichlorophenyl)(1-hydroxycyclopentyl)methyl]-4-(trifluoromethyl)pyridine-2-carboxamide]
27 | CCn1cc(-c2cccc(C(NC(=O)c3nccc(C(F)(F)F)c3Cl)C3(O)CCC(F)(F)CC3)c2)cn1 (single isomer, unassigned) [Compound 92, 3-chloro-N-{(4,4-difluoro-1-hydroxycyclohexyl)[3-(1-ethyl-1H-pyrazol-4-yl)phenyl]methyl}-4-(trifluoromethyl)pyridine-2-carboxamide]
1200 | O=C(NC(c1cccc(F)c1Cl)[C@]1(O)CC[C@@H](F)CC1)c1ncccc1Cl (single isomer, unassigned) [Compound 249, 3-chloro-N-[(2-chloro-3-fluorophenyl)(cis-4-fluoro-1-hydroxycyclohexyl)methyl]pyridine-2-carboxamide]
1900 | O=C(NC(c1cccc(F)c1Cl)[C@]1(O)CC[C@@H](F)CC1)c1cc(-n2ccnn2)ccc1Cl (single isomer, unassigned) [Compound 337, 2-chloro-N-[(2-chloro-3-fluorophenyl)(cis-4-fluoro-1-hydroxycyclohexyl)methyl]-5-(1H-1,2,3-triazol-1-yl)benzamide]
36 | CS(=O)(=O)c1ncc(C(F)(F)F)cc1C(=O)NC(c1cccc(F)c1Cl)[C@]1(O)CC[C@@H](F)CC1 (single isomer, unassigned) [Compound 387, N-[(2-chloro-3-fluorophenyl)(cis-4-fluoro-1-hydroxycyclohexyl)methyl]-2-(methylsulfonyl)-5-(trifluoromethyl)pyridine-3-carboxamide]
350 | O=C(NC(c1cccnc1Cl)[C@]1(O)CC[C@@H](F)CC1)c1cccc(C(F)(F)F)c1Cl (single isomer, unassigned) [Compound 322, 2-chloro-N-[(2-chloropyridin-3-yl)(cis-4-fluoro-1-hydroxycyclohexyl)methyl]-3-(trifluoromethyl)benzamide]
690 | O=C(NC(c1cccc(F)c1Cl)[C@]1(O)CC[C@@H](F)CC1)c1cc(-n2nccn2)ccc1Cl (single isomer, unassigned) [Compound 336, 2-chloro-N-[(2-chloro-3-fluorophenyl)(cis-4-fluoro-1-hydroxycyclohexyl)methyl]-5-(2H-1,2,3-triazol-2-yl)benzamide]
62 | O=C(NC(c1cccc(Cl)c1Cl)C1(O)CCC(F)(F)CC1)c1nccc(C(F)(F)F)c1Cl (single isomer, unassigned) [Compound 137, 3-chloro-N-[(2,3-dichlorophenyl)(4,4-difluoro-1-hydroxycyclohexyl)methyl]-4-(trifluoromethyl)pyridine-2-carboxamide]
330 | CS(=O)(=O)c1ccc(C(F)(F)F)cc1C(=O)NC(c1ccccc1Cl)C1(O)CCC(F)(F)CC1 (single isomer, unassigned) [Compound 395, N-[(2-chlorophenyl)(4,4-difluoro-1-hydroxycyclohexyl)methyl]-2-(methylsulfonyl)-5-(trifluoromethyl)benzamide]
150 | O=C(NC(c1cccc(F)c1Cl)[C@]1(O)CC[C@@H](F)CC1)c1cc(C(F)(F)F)cnc1Cl (single isomer, unassigned) [Compound 317, 2-chloro-N-[(2-chloro-3-fluorophenyl)(cis-4-fluoro-1-hydroxycyclohexyl)methyl]-5-(trifluoromethyl)pyridine-3-carboxamide]
14 | O=C(NC(c1cccc(-c2cn[nH]c2)c1)C1(O)CCCC1)c1nccc(C(F)(F)F)c1Cl (stereo not shown) [Compound 17, 3-chloro-N-{(1-hydroxycyclopentyl)[3-(1H-pyrazol-4-yl)phenyl]methyl}-4-(trifluoromethyl)pyridine-2-carboxamide]
1800 | CS(=O)(=O)c1cc(C(F)(F)F)cnc1C(=O)NC(c1cccc(F)c1Cl)[C@]1(O)CC[C@@H](F)CC1 (single isomer, unassigned) [Compound 389, N-[(2-chloro-3-fluorophenyl)(cis-4-fluoro-1-hydroxycyclohexyl)methyl]-3-(methylsulfonyl)-5-(trifluoromethyl)pyridine-2-carboxamide]
290 | O=C(NC(c1cccc(F)c1Cl)[C@]1(O)CC[C@@H](F)CC1)c1ccc(C(F)(F)F)nc1Cl (single isomer, unassigned) [Compound 304, 2-chloro-N-[[2-chloro-3-fluorophenyl)(cis-4-fluoro-1-hydroxycyclohexyl)methyl]-6-(trifluoromethyl)pyridine-3-carboxamide]
77 | O=C(NC(c1cccc(Cl)n1)C1(O)CCC(F)(F)CC1)c1nccc(C(F)(F)F)c1Cl (single isomer, unassigned) [Compound 311, 3-chloro-N-[(6-chloropyridin-2-yl)(4,4-difluoro-1-hydroxycyclohexyl)methyl]-4-(trifluoromethyl)pyridine-2-carboxamide]
210 | CCn1cc(-c2cccc(C(NC(=O)c3cc(C(F)(F)F)ccc3Cl)C3(O)CCC(F)(F)CC3)c2)cn1 (stereo not shown) [Compound 180, 2-chloro-N-{(4,4-difluoro-1-hydroxycyclohexyl)[3-(1-ethyl-1H-pyrazol-4-yl)phenyl]methyl}-5-(trifluoromethyl)benzamide]
110 | O=C(NC(c1cccc(F)c1)C1(O)CCCC1)c1nccc(C(F)(F)F)c1Cl (stereo not shown) [Compound 40, 3-chloro-N-[(3-fluorophenyl)(1-hydroxycyclopentyl)methyl]-4-(trifluoromethyl)pyridine-2-carboxamide]
1900 | CCn1cc(-c2cccc(C(NC(=O)c3ccccc3Cl)C3(O)CCC(F)(F)CC3)c2)cn1 (stereo not shown) [Compound 205, 2-chloro-N-[(4,4-difluoro-1-hydroxycyclohexyl)[3-(1-ethyl-1H-pyrazol-4-yl)phenyl]methyl}benzamide]
